Patent publication US20250319117A1, “METHODS AND COMPOSITIONS FOR TREATING FIBROSIS” (THE UNIVERSITY OF CHICAGO, priority 2021, published 2025)

Legend:
[1] = biological target: Integrin-αM (human, on monocyte-derived myofibroblasts) (human) (UniProt P11215); assay: cell-based or functional assay
[2] = tested on: fibrosis; conditions: literature [4], [6]; cited from earlier work
[3] = tested on: mouse fibroblast-derived myofibroblasts; assay: Flow cytometry of mouse fibroblast-derived myofibroblasts treated with siRNA; type: cell-based; conditions: 50 nM siRNA
Protocol: Human fibroblasts (MRC-5, ATCC, Manassas, VA) and mouse fibroblasts (NIH-3T3, ATCC) were cultured in SFM composed for human cells, with 1× concentrations of additives. TGF-b (Peprotech) was added to induce myofibroblast formation at 5 ng/ml. Cells were cultured at 10,000/cm^2, and TGF-β was refreshed in cultures weekly to maintain the myofibroblast phenotype.
The SMARTpool of siRNA targeting human talin2 contained four target sequences, while the anti-parallel corresponding siRNA sequences actually silenced the mRNA. Target sequences: #1 (CCAGAAAACUGAACGAUUA) (SEQ ID NO:29), #2 (GCCCUGUCCUUAAAGAUUU) (SEQ ID NO:30), #3 (CGACUGUGGUUAAAUACUC) (SEQ ID NO:31), and #4 (CGAGAAAGCUUGUGAGUUU) (SEQ ID NO:32). SMARTpool targeting mouse talin2 also contained four target sequences: #1 […], #2 (CUGGAAAAUUCAGUGAUGA) (SEQ ID NO:26), #3 (CCCUGGAUUUUGAAGAACA) (SEQ ID NO:27), and #4 (CCAUCGAGUACAUAAAACA) (SEQ ID NO:28). Control non-targeting SMARTpools contained 4 target sequences, including: #1 (CCAGAAAACUGAACGAUUA) (SEQ ID NO:29), #2 (GCCCUGUCCUUAAAGAUUU) (SEQ ID NO:30), #3 (CGACUGUGGUUAAAUACUC) (SEQ ID NO:31), and #4 (CGAGAAAGCUUGUGAGUUU) (SEQ ID NO:32). Individual siRNA tested in mice was talin2 siRNA #2, target: 5′ CUGGAAAAUUCAGUGAUGA 3′ (SEQ ID NO:26), anti-sense: 5′ UCAUCACUGAAUUUUCCAG 3′ (SEQ ID NO:37). […]

[4] = tested on: mouse monocyte-derived myofibroblasts; assay: Flow cytometry of mouse monocyte-derived myofibroblasts treated with siRNA; type: cell-based; conditions: 50 nM siRNA mixtures or individual siRNAs (FIG. 27D)
Protocol: Human and mouse monocytes were cultured as previously described, using serum-free media (SFM). Briefly, SFM for human cells is composed of fibrolife (Lifeline, Frederick, MD), with 1× ITS-3 (Sigma, St. Louis, MO), 1× HEPES buffer (Sigma), 1× non-essential amino acids (Sigma), 1× sodium pyruvate (Sigma), and penicillin-streptomycin with glutamate (Sigma). For mice, 2× concentrations of ITS-3, HEPES buffer, non-essential amino acids, and sodium pyruvate are added. For mouse monocytes, […] beta-mercaptoenthanol (ThermoFisher) was also added, as were pro-fibrotic supplements M-CSF (25 ng/ml, Peprotech, Rocky Hill, NJ) and IL-13 (50 ng/ml). Additionally, M-CSF and IL-13 were refreshed in the media of mouse monocytes after 3 days of culture.
Accell Silencing RNA (siRNA, Dharmacon, Lafayette, CO) is specifically engineered to penetrate cells without the use of transfection reagents, due to a cholesterol modification at one terminus of the sequence. […] Thus, Accell siRNA targets all cells in a population, not just those that are replicating. […] Lastly, Accell siRNA contains a modification that inhibits enzymatic digestion within cells. Thus, Accell siRNA made a natural choice for this experiment, and all siRNAs used in this study are Accell siRNA. siRNA was resuspended in RNAse-free ultrapure water, as per the manufacturer's instructions. […]

[5] = tested on: bleomycin insult to mouse lungs; assay: Bleomycin lung fibrosis model, lung instillation of talin2 siRNA; type: in vivo
[6] = biological target: Integrin αMβ2 (human, MAC1, on monocyte-derived myofibroblasts) (human) (UniProt P11215); assay: cell-based or functional assay
[7] = tested on: human monocyte-derived myofibroblasts; assay: Legendplex ELISA of conditioned media, human monocyte-derived myofibroblasts; type: cell-based; conditions: antibody 500 ng/ml, leukadherin 2 ng/ml
Protocol: Supernatant from cultured human and mouse myofibroblasts were thawed at 4 C, and centrifuged at 4 C and 10,000×G to pellet cell debris. Supernatant was taken and added to 96 well round bottom plates, in duplicate. Legendplex (Biolegend) beads against general inflammation markers were added, according to the manufacturer's instructions. Sample readouts were normalized to each individual donor control.

[8] = tested on: human monocyte-derived myofibroblasts; assay: Flow cytometry of human monocyte-derived myofibroblasts treated with antibodies or leukadherin; type: cell-based; conditions: antibody 500 ng/ml, leukadherin 2 ng/ml
Description: (§1) Myofibroblasts were de-differentiated by addition of antibodies (α-αMβ2, α-αM, α-α3) for 7 days after the 5 day differentiation was completed. Antibodies were free of azide, glycerol, and other preservatives.
(§2) Cultured myofibroblasts were lifted with ice cold trypsin-EDTA (Sigma), followed by mechanical agitation by a rubber policeman. Myofibroblasts were fixed and permeabilized using Cytofix/Cytoperm (BD biosciences, Franklin Lakes, NJ), and live-dead stained (live-dead aqua, ThermoFisher) per manufacturer's instructions. Antibodies used were α-collagen I (Biolegend, San Diego, CA), anti-α smooth muscle actin (αSMA) (R and D systems, Minneapolis, MN), α-ki-67 (BD biosciences), and α-talin2 (R and D systems). Compensation was performed via UltraComp beads (ThermoFisher) per the manufacturer's instructions.

[9] = tested on: mouse monocyte-derived myofibroblasts; assay: Mouse monocyte-derived myofibroblast de-differentiation assessed by morphology; type: cell-based; conditions: 1 week (FIG. 2A, 2B)
Description: Spleens were pushed through a 100 µm filter to disassociate the cells. Monocytes were purified from disassociated cells by use of a negative selection kit (Stemcell), following the manufacturer's instructions. The purified monocytes were then washed by PBS using five successive 300×G centrifugation steps, in order to remove EDTA from the resulting population. Monocytes were checked for purity using flow cytometry, and average purity was above 95%. The average yield was 1.5 million monocytes per spleen. Monocytes were cultured immediately following purification, at 250,000 monocytes/cm^2.
Human and mouse monocytes were cultured as previously described, using serum-free media (SFM). Briefly, SFM for human cells is composed of fibrolife (Lifeline, Frederick, MD), with 1× ITS-3 (Sigma, St. Louis, MO), 1× HEPES buffer (Sigma), 1× non-essential amino acids (Sigma), 1× sodium pyruvate (Sigma), and penicillin-streptomycin with glutamate (Sigma). For mouse monocytes, 2× concentrations of ITS-3, HEPES buffer, non-essential amino acids, and sodium pyruvate were added, with 50 μM β-mercaptoenthanol (ThermoFisher) and pro-fibrotic supplements M-CSF (25 ng/ml, Peprotech, Rocky Hill, NJ) and IL-13 (50 ng/ml) to induce myofibroblast differentiation. […] Monocytes were allowed to differentiate for 5 days, and counted based on morphology as previously described. […]

[10] = tested on: human monocyte-myofibroblast differentiation; assay: Human monocyte-myofibroblast de-differentiation assessed by morphology; type: cell-based; conditions: added to culture of human monocyte-myofibroblasts (FIG. 1A, 1B)
Protocol: Monocytes were purified from PBMCs by use of a negative selection kit for human monocytes (Stemcell, Cambridge, MA), per the manufacturer's instructions. Approximately 20 million monocytes were purified from each filter. Monocytes were then washed by PBS using five successive 300×G centrifugation steps, in order to remove EDTA from the resulting population. Monocytes were checked for purity using flow cytometry, and average purity was above 95%. Monocytes were cultured immediately following purification, at 100,000 monocytes/cm^2.
Human and mouse monocytes were cultured as previously described, using serum-free media (SFM). Briefly, SFM for human cells is composed of fibrolife (Lifeline, Frederick, MD), with 1× ITS-3 (Sigma, St. Louis, MO), 1× HEPES buffer (Sigma), 1× non-essential amino acids (Sigma), 1× sodium pyruvate (Sigma), and penicillin-streptomycin with glutamate (Sigma). For mouse monocytes, 2× concentrations of ITS-3, HEPES buffer, non-essential amino acids, and sodium pyruvate were added, with 50 μM β-mercaptoenthanol (ThermoFisher) and pro-fibrotic supplements M-CSF (25 ng/ml, Peprotech, Rocky Hill, NJ) and IL-13 (50 ng/ml) to induce myofibroblast differentiation. Additionally, M-CSF and IL-13 were refreshed in the media of mouse monocytes after 3 days of culture. Monocytes were allowed to differentiate for 5 days, and counted based on morphology as previously described. […]

[11] = tested on: mouse monocyte-derived myofibroblasts; assay: Flow cytometry of mouse monocyte-derived myofibroblasts treated with antibodies or leukadherin; type: cell-based; conditions: antibody 500 ng/ml
Description: as §1, §2

[12] = tested on: talin1 and talin2; conditions: literature [83]; cited from earlier work

Compound: α-αM (clone ICRF44) (antibody)
- IC50 for human monocyte-myofibroblast differentiation (de-differentiation by morphology) [1]: 59.7 ng/ml

Compound: Cc1ccc(=O)n(-c2ccccc2)c1 [pirfenidone]
- effect on progression of fibrosis [2]: slow, but do not reverse, the progression of fibrosis

Compound: talin2 siRNA #2: individual Accell siRNA against mouse talin2; target CUGGAAAAUUCAGUGAUGA (SEQ ID NO:26), antisense UCAUCACUGAAUUUUCCAG (SEQ ID NO:37) (Accell modifications, chemistry not fully specified)
- αSMA and collagen I double-positive myofibroblasts ([3]; mouse cell cultures (FIG. 28C)): most reduced both αSMA and collagen I double-positive
- talin2 positive myofibroblasts ([3]; mouse cell cultures (FIG. 28D)): most reduced both αSMA and collagen I double-positive (FIG. 28C) and talin2 positive (FIG. 28D) myofibroblasts
- αSMA and collagen I double-positive cells / myofibroblast differentiation [4]: inhibited myofibroblast differentiation by itself
- mouse weight ([5]; 200 nM by lung instillation at 7, 9, 11, 14, 16, 18 days post bleomycin, to day 21 (FIG. 29A)): showed a lesser transient weight decrease than did the controls
- amount of collagen in the lungs (hydroxyproline assay) ([5]; 200 nM by lung instillation x6, day 21 (FIG. 29B-C)): reduced the amount of collagen in the lungs
- blinded Ashcroft scoring of Masson's trichrome-stained lung sections ([5]; 200 nM by lung instillation x6, day 21 (FIG. 29D)): improved the histological readout of lung fibrosis
- lung fibrosis in Masson's trichrome images ([5]; vs non-targeting siRNA and untreated fibrotic lungs (FIG. 29E-L)): rescued lung fibrosis compared to non-targeting siRNA and untreated fibrotic lungs

Compound: α-αMβ2 (MAC1, clone CBRM1/5) (antibody)
- IC50 for human monocyte-myofibroblast differentiation (de-differentiation by morphology) [6]: 63.3 ng/ml

Compound: PRM-151: recombinant pentraxin-2
- effect on progression of fibrosis [2]: shown even a modest ability to reverse fibrosis in some patients

Compound: COC(=O)c1ccc2c(c1)NC(=O)/C2=C(\Nc1ccc(N(C)C(=O)CN2CCN(C)CC2)cc1)c1ccccc1 [nintedanib]
- effect on progression of fibrosis [2]: slow, but do not reverse, the progression of fibrosis

Compound: leukadherin
- secreted MCP1 ([7]; conditioned media after 1 week (FIG. 9A)): promoted the secretion of MCP1
- secreted IL-6 ([7]; conditioned media after 1 week (FIG. 9C)): promoted the secretion of MCP1 (FIG. 9A) and IL-6
- αSMA+ collagen I+ double positive cells ([8]; flow cytometry (FIG. 1C)): increased the amount of αSMA^+ collagen I^+ double positive cells
- talin2 expression ([8]; flow cytometry (FIG. 1D)): nor integrin interaction promoters (Gi14, leukadherin) significantly altered talin2 expression
- myofibroblast de-differentiation or differentiation by morphology [9]: increased monocyte-derived myofibroblast differentiation
- myofibroblast de-differentiation or differentiation as determined by morphology [10]: promoted myofibroblasts differentiation
- αSMA+ and collagen I+ double positive myofibroblasts ([11]; leukadherin 2 ng/ml (FIG. 2C)): increased both the amount of α αSMA^+ and collagen I^+ double positive monocyte-myofibroblasts
- talin2+ cells / talin2 concentration ([11]; leukadherin 2 ng/ml (FIG. 2D)): increasing talin2 concentration in these cells

Compound: O=C(COc1ccc2c(c1)OCO2)NC(=O)NCCc1c[nH]c2ccccc12 [KCH-1521]
- adhesion-dependent angiogenesis [12]: decreases adhesion-dependent angiogenesis
- distinction between talin1 and talin2 [12]: does not distinguish between talin1 and talin2
